Test results as given in patent US20240336551A1, “BIODEGRADEBLE MATERIAL MANUFACTURING METHOD AND SYSTEM” (NOROO IC Co., Ltd., priority 2023, published 2024).

Assays:
[1] = tested on: Escherichia coli ATCC 25922; test: Sterilization experiment (antimicrobial test, KCL-FIR-1002:2021): Escherichia coli; assay type: cell-based
Procedure: (§1) Meanwhile, a sterilization experiment was conducted on ethyl 3-HP, a biodegradable material manufactured by the system of the present invention, and the data thereof is shown in Table 1 below. The sterilization experiment was conducted by a test method according to the KCL-FIR-1002:2021 standard.

[2] = tested on: Staphylococcus aureus ATCC 6538; test: Sterilization experiment (antimicrobial test, KCL-FIR-1002:2021): Staphylococcus aureus; assay type: cell-based
Procedure: as §1

[3] = tested on: MRSA bacteria (Staphylococcus aureus subsp. aureus); test: Sterilization experiment (antimicrobial test, KCL-FIR-1002:2021): MRSA bacteria; assay type: cell-based
Procedure: as §1

[4] = tested on: Streptococcus mutans ATCC 25175; test: Sterilization experiment (antimicrobial test, KCL-FIR-1002:2021): Streptococcus mutans; assay type: cell-based
Procedure: as §1

[5] = tested on: (Bacillus cereus ATCC 11778); test: Sterilization experiment (antimicrobial test, KCL-FIR-1002:2021): Bacillus cereus; assay type: cell-based; details: after 24 hours, versus BLANK
Procedure: as §1

[6] = tested on: Streptococcus (Bacillus cereus ATCC 11778); test: as above; assay type: cell-based; details: initial concentration 3.0*10^4 CFU/ml, BLANK 3.1*10^5
Procedure: as §1

[7] = Degree of biodegradability: cumulative amount of CO2 generated over time (FIG. 4)
Source text: In describing the present invention, “biodegradable” refers to a definition based on ASTM […]-15 (Standard Test Method for Determination of Aerobic Biodegradation of Plastic Materials Under Controlled Composting Conditions, Incorporating Thermophilic Temperatures). […] This is a much faster biodegradation rate than that of poly (lactic acid) (PLA), which is a biodegradable polymer.

microorganisms = test: Sterilization experiment, overall conclusion; assay type: cell-based; details: conclusion drawn from Table 1
Procedure: as §1
From the above data, it can be confirmed that […].

Structure (SMILES)	Bacteriostatic reduction rate ([1]; after 24 hours, versus BLANK)	Concentration after 24 hours ([1]; initial concentration 1.3*10^4 CFU/ml, BLANK 1.5*10^5)	Bacteriostatic reduction rate ([2]; after 24 hours, versus BLANK)	Concentration after 24 hours ([2]; initial concentration 3.4*10^4 CFU/ml, BLANK 3.7*10^5)	Bacteriostatic reduction rate ([3]; after 24 hours, versus BLANK)	Concentration after 24 hours ([3]; initial concentration 2.5*10^4 CFU/ml, BLANK 2.6*10^5)	Bacteriostatic reduction rate ([4]; after 24 hours, versus BLANK)	Concentration after 24 hours ([4]; initial concentration 2.6*10^4 CFU/ml, BLANK 2.7*10^5)	Bacteriostatic reduction rate [5]	Concentration after 24 hours [6]	Biodegradability compared to PLA [7]	Bacteriostatic / sterilizing effect (microorganisms)
CCOC(=O)CCO [Ethyl 3-HP, ethyl 3-hydroxypropionate]	20%	1.2*10^5 CFU/ml	8.1%	3.4*10^5 CFU/ml	61.5%	1.0*10^5 CFU/ml	48.1%	1.4*10^5 CFU/ml	45.1%	1.7*10^5 CFU/ml	excellent biodegradability compared to PLA	–
O=C(O)CCO [3-HP, 3-hydroxy propionate]	–	–	–	–	–	–	–	–	–	–	excellent biodegradability compared to PLA	only the bacteriostatic effect and no sterilizing effect
